The source of these data is ChEMBL document CHEMBL1201862, “PubChem BioAssay data set” (2004).

SMILES strings stand for the structures.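 Growth conditions: 96-well plates. Treatment: test compound, 48 hours, 5 concentrations. Analysis: linear interpolation between bracketing concentrations; unreached endpoints set to highest concentration. Abbreviation: GI50, concentration required for 50% inhibition of growth.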 Active and inactive are the calls of the source. Rule as the data show it: active = GI50 up to about 1.1 µM and inactive = higher. Some results are limits rather than exact numbers.

Among the test systems are LOX IMVI; SN12C; MCF7; SK-OV-3; HCT-15; M14; MOLT-4; MDA-N; SF-295; SK-MEL-28; Hs-578T; IGROV-1; OVCAR-5; SR; TK-10; OVCAR-3; RPMI-8226; MDA-MB-231; A498; UACC-257.
Holding throughout (assay): NCI-60 cell line screen, 48 h

As to `c1cc2c(cc1NC1=NCCO1)OCO2`, the GI50 is > 100 µM (inactive) with LOX IMVI; > 100 µM (inactive) in the assay on SN12C; > 100 µM (inactive) in the assay on MCF7; > 100 µM (inactive) in the assay on SK-OV-3; over 100 µM in the assay with HCT-15; > 100 µM (inactive) in the assay with M14. Besides, the GI50 in the assay with MOLT-4 is > 100 µM (inactive); in the assay with MDA-N it was 42.2 µM (inactive); in the assay on SF-295 it was > 100 µM (inactive); in the assay with SK-MEL-28 it was > 100 µM (inactive); with Hs-578T, > 100 µM (inactive); in the assay with IGROV-1 it was > 100 µM (inactive). For the same compound, the GI50 is > 100 µM (inactive) in the assay with OVCAR-5; 64.3 µM (inactive) in the assay on SR; > 100 µM (inactive) in the assay with TK-10; > 100 µM (inactive) with OVCAR-3; > 100 µM (inactive) with RPMI-8226; > 100 µM (inactive) with MDA-MB-231. For the same compound, the GI50 in the assay with A498 is > 100 µM (inactive).
For `CC(=O)CCCCC(=O)Nc1ccc(CC(NC(=O)OC(C)(C)C)C(=O)NCC(=O)OCc2ccccc2)cc1` (configuration not stated), the GI50 in the assay with LOX IMVI is 15.1 µM (inactive); in the assay with SN12C, 24.7 µM (inactive); with MCF7 it was 24.7 µM (inactive); in the assay on SK-OV-3, 23 µM (inactive); in the assay on HCT-15 it was 62.8 µM; in the assay on M14 it was 17.5 µM (inactive). Further, the GI50 in the assay on MOLT-4 was 24.1 µM (inactive); with MDA-N, 21 µM (inactive); in the assay on SF-295, 18.8 µM (inactive); in the assay on SK-MEL-28 it was 19.3 µM (inactive); in the assay with Hs-578T, 16.1 µM (inactive); in the assay with IGROV-1, 33.3 µM (inactive). Further, the GI50 is 63.4 µM (inactive) in the assay on OVCAR-5; 22.2 µM (inactive) in the assay with SR; 63.1 µM (inactive) with TK-10; 14.8 µM (inactive) with OVCAR-3; 18 µM (inactive) in the assay with RPMI-8226; 22.5 µM (inactive) in the assay with MDA-MB-231. For the same compound, the GI50 with A498 is 23.1 µM (inactive).
`Cc1ccc2c(/C=C/c3ccc(N(C)C)cc3)ccc(C(C)C)cc1-2`: the GI50 in the assay on LOX IMVI, in the assay with SN12C, in the assay on MCF7, in the assay on SK-OV-3, with M14 and in the assay with MOLT-4 was > 100 µM (inactive) in each case. The GI50 with MDA-N, in the assay with SF-295, with SK-MEL-28, with Hs-578T, in the assay on IGROV-1 and with OVCAR-5 was > 100 µM (inactive) throughout. Also, the GI50 is 27.9 µM (inactive) in the assay on SR; > 100 µM (inactive) in the assay with TK-10; > 100 µM (inactive) in the assay with OVCAR-3; 48.9 µM (inactive) in the assay on UACC-257; > 100 µM (inactive) in the assay with RPMI-8226; > 100 µM (inactive) with MDA-MB-231. Besides, the GI50 in the assay with A498 is 83.4 µM (inactive).
Take `C=C1C(=O)OC2CC(=C)C3CC=C(C)C3CC12` (configuration not stated): the GI50 in the assay on LOX IMVI was 11.1 µM (inactive); with SN12C it was 16.2 µM (inactive); in the assay on MCF7 it was 20.1 µM (inactive); in the assay on SK-OV-3, 30.7 µM (inactive); in the assay with HCT-15, 17.5 µM; in the assay with M14, 18 µM (inactive). The GI50 in the assay with MOLT-4 was 17.3 µM (inactive); with MDA-N, 16.4 µM (inactive); with SF-295, 32.4 µM (inactive); in the assay on SK-MEL-28, 23.1 µM (inactive); with Hs-578T, 44.7 µM (inactive); with IGROV-1, 18 µM (inactive). Further, the GI50 was 46.7 µM (inactive) in the assay with OVCAR-5; 18.1 µM (inactive) with SR; 18 µM (inactive) with TK-10; 27.5 µM (inactive) in the assay on OVCAR-3; 14.4 µM (inactive) in the assay with UACC-257; 14.2 µM (inactive) in the assay on RPMI-8226. Further, the GI50 with MDA-MB-231 is 21.5 µM (inactive); in the assay with A498, 53.6 µM (inactive).
